# Source: PubChem BioAssay (NCI)
#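 How tested: cells in 96-well plates exposed to compound for 48 hours at five concentrations. The concentration for 50% growth inhibition is given as GI50. TGI denotes the concentration required for complete inhibition of growth.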 Where a SMILES comes first, the peptide text is derived from it. The star is where a group is joined. Cbz = O=C(OCc1ccccc1)*; Bn = c1ccc(C*)cc1
# Tests used:
# Test in all cases: growth of human tumour cells (NCI), 48 h
# [1] = tested on: NCI-H522 lung
# [2] = tested on: SK-MEL-28 melanoma
# [3] = tested on: UACC-62 melanoma
# [4] = tested on: ACHN renal
# [5] = tested on: CCRF-CEM leukemia
# [6] = tested on: OVCAR-5 ovarian
# [7] = tested on: K-562 leukemia
# [8] = tested on: HCC-2998 colon
# [9] = tested on: SK-MEL-2 melanoma
# [10] = tested on: SNB-75 CNS
# [11] = tested on: SN12C renal
smiles,measurement,setting,value
COc1ccc(-c2oc3cc(OC(C)=O)cc(OC(C)=O)c3c(=O)c2OC)cc1,TGI,[1],5.28 µM
same,TGI,[2],35.5 µM
same,TGI,[3],22.7 µM
same,TGI,[4],45.8 µM
same,TGI,[5],49.6 µM
same,TGI,[6],47.3 µM
same,TGI,[7],29.4 µM
same,TGI,[8],32.3 µM
CC(=O)OCC1OC(NC(=O)N(CCCl)N=O)C(OC(C)=O)C(OC(C)=O)C1OC(C)=O (stereo unspecified),TGI,[1],> 100 µM
same,TGI,[2],> 100 µM
same,TGI,[3],> 100 µM
same,TGI,[5],> 100 µM
same,TGI,[6],> 100 µM
same,TGI,[9],> 100 µM
same,TGI,[7],> 100 µM
same,TGI,[10],> 100 µM
same,TGI,[8],> 100 µM
same,TGI,[11],> 100 µM
C=CCOCCC(CC=C)C(=O)CC(=O)OC (stereo unspecified),TGI,[1],> 100 µM
same,TGI,[2],> 100 µM
same,TGI,[3],> 100 µM
same,TGI,[4],> 100 µM
same,TGI,[5],> 100 µM
same,TGI,[6],> 100 µM
same,TGI,[9],> 100 µM
same,TGI,[7],> 100 µM
same,TGI,[10],> 100 µM
same,TGI,[8],> 100 µM
same,TGI,[11],> 100 µM
CCn1c(=O)c(C(=O)O)c(Cl)c2cc3c(cc21)OCO3,TGI,[1],> 100 µM
same,TGI,[2],> 100 µM
same,TGI,[3],> 100 µM
same,TGI,[5],> 100 µM
same,TGI,[6],> 100 µM
same,TGI,[9],> 100 µM
same,TGI,[7],> 100 µM
same,TGI,[10],> 100 µM
same,TGI,[8],> 100 µM
same,TGI,[11],> 100 µM
NC(=O)c1ccc([N+](=O)[O-])cc1,TGI,[1],> 100 µM
same,TGI,[2],> 100 µM
same,TGI,[3],> 100 µM
same,TGI,[5],> 100 µM
same,TGI,[9],> 100 µM
same,TGI,[7],> 100 µM
same,TGI,[10],> 100 µM
same,TGI,[8],> 100 µM
same,TGI,[11],> 100 µM
C1CSCCSCSCCS1,TGI,[1],> 100 µM
same,TGI,[2],> 100 µM
same,TGI,[3],> 100 µM
same,TGI,[4],> 100 µM
same,TGI,[6],> 100 µM
same,TGI,[9],> 100 µM
same,TGI,[10],> 100 µM
same,TGI,[8],> 100 µM
same,TGI,[11],> 100 µM
O=C1c2cccc(O)c2C(=O)c2c(O)cccc21,TGI,[1],> 100 µM
same,TGI,[2],> 100 µM
same,TGI,[3],39.8 µM
same,TGI,[4],> 100 µM
same,TGI,[5],> 100 µM
same,TGI,[6],> 100 µM
same,TGI,[9],> 100 µM
same,TGI,[7],> 100 µM
same,TGI,[10],> 100 µM
same,TGI,[8],> 100 µM
same,TGI,[11],> 100 µM
N=C(N)c1ccc(-c2ccc(-c3ccc4ccccc4c3)s2)s1,GI50,[1],1.96 µM
same,TGI,[1],4.77 µM
same,GI50,[2],2.25 µM
same,TGI,[2],6.02 µM
same,GI50,[3],2.1 µM
same,TGI,[3],4.37 µM
same,GI50,[4],2.53 µM
same,TGI,[4],6.66 µM
same,GI50,[9],2.52 µM
same,TGI,[9],5.7 µM
same,GI50,[10],1.93 µM
same,TGI,[10],5.3 µM
same,GI50,[8],2.02 µM
same,TGI,[8],4.48 µM
same,GI50,[11],1.87 µM
same,TGI,[11],3.74 µM
COc1ccc(N2C(=O)/C(=C\c3ccccc3)SC2c2cc(OC)c(OC)c(OC)c2)cc1 (stereo unspecified),TGI,[1],> 100 µM
same,TGI,[2],> 100 µM
same,TGI,[3],> 100 µM
same,TGI,[4],> 100 µM
same,TGI,[5],> 100 µM
same,TGI,[6],> 100 µM
same,TGI,[9],75.9 µM
same,TGI,[7],> 100 µM
same,TGI,[10],75.7 µM
same,TGI,[8],> 100 µM
same,TGI,[11],> 100 µM
CS(=O)(=O)c1ccc2nc(-c3ccc(O)cc3)sc2c1,TGI,[1],29.6 µM
same,TGI,[3],34.4 µM
same,TGI,[4],32.4 µM
same,TGI,[5],> 100 µM
same,TGI,[6],31.6 µM
same,TGI,[9],36.3 µM
same,TGI,[7],> 100 µM
same,TGI,[11],35.5 µM
C=CCNC1=C2C[C@@H](C)C[C@H](OC)[C@H](O)[C@@H](C)/C=C(\C)[C@H](OC(N)=O)[C@@H](OC)/C=C\C=C(/C)C(=O)NC(=CC1=O)C2=O,TGI,[1],22.3 µM
same,TGI,[2],32.5 µM
same,TGI,[3],4.8 µM
same,TGI,[4],32.2 µM
same,TGI,[5],10.6 µM
same,TGI,[6],22.6 µM
same,TGI,[9],19.1 µM
same,TGI,[7],29.7 µM
same,TGI,[10],2.72 µM
same,TGI,[8],2.82 µM
same,TGI,[11],19.4 µM
COc1ccc2c(c1)C(OC)C1c3c(cc4c(c3-2)OCO4)CCN1C (stereo unspecified),TGI,[1],6.23 µM
same,TGI,[2],19.8 µM
same,TGI,[3],5.08 µM
same,TGI,[4],8.03 µM
same,TGI,[6],16.8 µM
same,TGI,[9],7.9 µM
same,TGI,[7],> 57.3 µM
same,TGI,[10],15.6 µM
same,TGI,[8],14.3 µM
same,TGI,[11],12.1 µM
O=C(Nc1ccc(Cl)cc1)c1cc([N+](=O)[O-])ccc1O,TGI,[1],5.85 µM
same,TGI,[2],15.6 µM
same,TGI,[3],8.17 µM
same,TGI,[4],> 100 µM
same,TGI,[5],11 µM
same,TGI,[6],81.6 µM
same,TGI,[9],11.3 µM
same,TGI,[7],13.1 µM
same,TGI,[10],20.2 µM
same,TGI,[8],8.98 µM
same,TGI,[11],> 50.9 µM
CC1C[C@]2(C[C@@H](C)C(=O)O2)OC2CC3(C)C4CCC5C(C)(C)OC(=O)CC[C@@]56C[C@@]46CC[C@]3(C)C12 (stereo partly specified),TGI,[2],> 100 µM
same,TGI,[4],> 100 µM
same,TGI,[5],> 100 µM
same,TGI,[6],> 100 µM
same,TGI,[9],> 100 µM
same,TGI,[7],> 100 µM
same,TGI,[10],> 100 µM
same,TGI,[8],> 100 µM
same,TGI,[11],> 100 µM
C[n+]1c2ccccc2c(CNCC(=O)O)c2ccccc21,TGI,[1],0.307 µM
same,TGI,[3],3.83 µM
same,TGI,[4],2.59 µM
same,TGI,[6],28.5 µM
same,TGI,[9],12.6 µM
same,TGI,[7],11.1 µM
same,TGI,[10],20.9 µM
same,TGI,[8],18.1 µM
same,TGI,[11],2.81 µM
c1ccc(-c2n(Cc3ccc4ccccc4c3)c3ccccc3[n+]2Cc2ccc3ccccc3c2)cc1,GI50,[2],0.359 µM
same,TGI,[2],1.31 µM
same,GI50,[3],0.224 µM
same,TGI,[3],0.76 µM
same,GI50,[4],0.975 µM
same,TGI,[4],2.36 µM
same,GI50,[6],0.44 µM
same,TGI,[6],1.76 µM
same,GI50,[10],0.184 µM
same,TGI,[10],0.913 µM
same,GI50,[11],0.308 µM
same,TGI,[11],1.1 µM
COC(=O)C(Cc1ccc(O)cc1)NC(=O)C(COCc1ccccc1)NC(=O)OCc1ccccc1 (stereo unspecified) (Cbz-Ser(Bn)-Tyr-OMe; configuration not given here),TGI,[1],37.3 µM
same,TGI,[2],35.9 µM
same,TGI,[3],31.1 µM
same,TGI,[4],31.2 µM
same,TGI,[5],> 100 µM
same,TGI,[6],36.7 µM
same,TGI,[9],40.8 µM
same,TGI,[7],> 100 µM
same,TGI,[10],29.9 µM
same,TGI,[8],17.3 µM
same,TGI,[11],32.7 µM
